Reference: publication PMC10709440, “High-throughput ligand profile characterization in novel cell lines expressing seven heterologous insect olfactory receptors for the detection of volatile plant biomarkers” (Scientific Reports, 2023)
Read-outs that look alike come from different tables or passages of the source.

What was measured:
Drosophila OR47a = target: T1, Drosophila OR47a (Drosophila melanogaster, UniProt P81921); experiment: Calcium ion fluorescence (GCaMP6) assay, OR47a stable HEK293 cell line; type: cell-based; settings: for Average response / OR47a response (VUAA1-normalized) at 1 μM / OR47a response (VUAA1-normalized) at 10 μM / OR47a response (VUAA1-normalized) at 100 μM: OR47a cell line; for Average response: mean of biological replicates; for OR47a response (VUAA1-normalized) at 1 μM: VOC concentration 1 μM; for OR47a response (VUAA1-normalized) at 10 μM: VOC concentration 10 μM; for OR47a response (VUAA1-normalized) at 100 μM: VOC concentration 100 μM
T1 construct: expressed in transfected cells
T1 sequence (P81921 1-385): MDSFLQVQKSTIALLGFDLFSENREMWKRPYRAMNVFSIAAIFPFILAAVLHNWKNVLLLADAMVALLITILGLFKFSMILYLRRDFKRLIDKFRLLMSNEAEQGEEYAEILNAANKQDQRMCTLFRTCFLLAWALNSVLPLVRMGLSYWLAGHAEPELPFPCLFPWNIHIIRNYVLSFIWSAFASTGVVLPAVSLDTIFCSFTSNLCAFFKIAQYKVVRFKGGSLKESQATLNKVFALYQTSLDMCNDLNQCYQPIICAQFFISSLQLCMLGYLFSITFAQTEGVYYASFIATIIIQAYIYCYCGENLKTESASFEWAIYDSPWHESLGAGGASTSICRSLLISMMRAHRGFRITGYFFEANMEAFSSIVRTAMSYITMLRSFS
T1 sequence (Q9VNB5 1-486 partner): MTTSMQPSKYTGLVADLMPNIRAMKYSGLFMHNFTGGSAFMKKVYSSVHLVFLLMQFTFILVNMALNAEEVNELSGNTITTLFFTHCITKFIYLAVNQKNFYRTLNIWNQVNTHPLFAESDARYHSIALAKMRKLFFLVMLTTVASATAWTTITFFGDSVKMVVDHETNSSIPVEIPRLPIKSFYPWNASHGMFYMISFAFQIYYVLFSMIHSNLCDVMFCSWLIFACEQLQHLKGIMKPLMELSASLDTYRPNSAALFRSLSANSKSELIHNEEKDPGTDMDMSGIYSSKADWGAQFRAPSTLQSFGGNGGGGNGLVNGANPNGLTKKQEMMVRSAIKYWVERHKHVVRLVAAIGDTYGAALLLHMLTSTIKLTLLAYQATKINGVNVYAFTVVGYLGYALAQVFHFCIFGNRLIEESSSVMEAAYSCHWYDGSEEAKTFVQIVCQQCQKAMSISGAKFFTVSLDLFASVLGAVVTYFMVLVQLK
In short: (§1)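 Responses are VUAA1-normalized ΔF: each VOC-evoked calcium signal, (FMAX−F0)/F0 over 30 s after injection, divided by the same line's mean 50 µM VUAA1 response. Cells were doxycycline-induced HEK293 with GCaMP6 and the cognate Drosophila OR, in HEPES buffer pH 7.3; ligands tested 0.01–100 μM.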

Drosophila OR98a = target: T2, Drosophila OR98a (Drosophila melanogaster, UniProt Q9VAZ3); experiment: Calcium ion fluorescence (GCaMP6) assay, OR98a stable HEK293 cell line; type: cell-based; settings: for OR98a response (VUAA1-normalized) at 1 μM / OR98a response (VUAA1-normalized) at 10 μM / OR98a response (VUAA1-normalized) at 100 μM: OR98a cell line; for OR98a response (VUAA1-normalized) at 1 μM: VOC concentration 1 μM; for OR98a response (VUAA1-normalized) at 10 μM: VOC concentration 10 μM; for OR98a response (VUAA1-normalized) at 100 μM: VOC concentration 100 μM
T2 construct: expressed in transfected cells
T2 sequence (Q9VAZ3 1-397): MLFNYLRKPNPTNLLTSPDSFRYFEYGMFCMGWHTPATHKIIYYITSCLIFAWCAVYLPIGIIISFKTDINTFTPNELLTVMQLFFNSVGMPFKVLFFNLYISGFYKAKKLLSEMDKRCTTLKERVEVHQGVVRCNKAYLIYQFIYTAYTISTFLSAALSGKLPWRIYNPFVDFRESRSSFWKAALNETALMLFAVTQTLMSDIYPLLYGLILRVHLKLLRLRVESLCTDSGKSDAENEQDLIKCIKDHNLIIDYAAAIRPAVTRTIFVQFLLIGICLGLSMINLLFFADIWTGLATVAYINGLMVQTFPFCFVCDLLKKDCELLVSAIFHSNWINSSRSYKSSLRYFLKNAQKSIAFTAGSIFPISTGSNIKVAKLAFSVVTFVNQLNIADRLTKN
T2 sequence (Q9VNB5 1-486 partner): T1 sequence (Q9VNB5 1-486 partner)
In short: as §1

[1] = HEK293, read-out: OR47a response (VUAA1-normalized response)
[2] = concentration 1, normalized fluorescence change, values below 0.05 threshold given as 0
[3] = concentration 10, normalized fluorescence change, values below 0.05 threshold given as 0
[4] = concentration 100, normalized fluorescence change, values below 0.05 threshold given as 0
[5] = HEK293, read-out: Average response
[6] = HEK293, read-out: OR98a Average response (VUAA1-normalized)
[7] = HEK293, read-out: OR98a response (VUAA1-normalized response)
[8] = HEK293, read-out: OR47a Average response (VUAA1-normalized)
[9] = ligand concentration 1 (unit not given), threshold 0.05, below shown as 0
[10] = ligand concentration 10 (unit not given), threshold 0.05, below shown as 0
[11] = ligand concentration 100 (unit not given), threshold 0.05, below shown as 0
[12] = ligand concentration 1 (unit not given), 0.05 threshold, values below shown as 0
[13] = ligand concentration 10 (unit not given), 0.05 threshold, values below shown as 0
[14] = ligand concentration 100 (unit not given), 0.05 threshold, values below shown as 0

Row | Structure (SMILES) | activation at 1 µM (Drosophila OR47a; [1]) [%] | activation at 10 µM (Drosophila OR47a; [1]) [%] | activation at 100 µM (Drosophila OR47a; [1]) [%] | Average response (Drosophila OR47a; odorant cc. 1 µM) | Average response (Drosophila OR47a; odorant cc. 10 µM) | Average response (Drosophila OR47a; odorant cc. 100 µM) | activation at 1 µM (Drosophila OR98a; [5]) [%] | activation at 10 µM (Drosophila OR98a; [5]) [%] | activation at 100 µM (Drosophila OR98a; [5]) [%] | activation at 1 µM (Drosophila OR98a; [6]) [%] | activation at 10 µM (Drosophila OR98a; [6]) [%] | activation at 1 µM (Drosophila OR98a; [7]) [%] | activation at 10 µM (Drosophila OR98a; [7]) [%] | activation at 100 µM (Drosophila OR98a; [7]) [%] | DF norm AVERAGE OR47a (Drosophila OR47a; [9]) | DF norm AVERAGE OR47a (Drosophila OR47a; [10]) | DF norm AVERAGE OR47a (Drosophila OR47a; [11]) | DF norm AVERAGE OR98a (Drosophila OR98a; [9]) | DF norm AVERAGE OR98a (Drosophila OR98a; [10]) | DF norm AVERAGE OR98a (Drosophila OR98a; [11]) | other results
1 | CCCCCC(C)O (stereo not drawn) [2-heptanol] | 0 | 6 | 0 | 0.00 | 0.06 | 0.00 | 3.25 | 3.67 | 16 | 3 | 4 | 0 | 0 | 16 | – | – | – | – | – | – | DF norm AVERAGE OR47a (Drosophila OR47a; [2]): 0; DF norm AVERAGE OR47a (Drosophila OR47a; [3]): 0.05999; DF norm AVERAGE OR47a (Drosophila OR47a; [4]): 0; activation at 100 µM (Drosophila OR98a; [6]): 16%; DF norm AVERAGE OR98a (Drosophila OR98a; [2]): 0; DF norm AVERAGE OR98a (Drosophila OR98a; [3]): 0; DF norm AVERAGE OR98a (Drosophila OR98a; [4]): 0.1574
2 | CCOC(=O)c1ccccc1 [ethyl benzoate] | 0 | 0 | 10 | 0.0468 | 0.00 | 0.10 | 3 | 0 | 20 | 3 | 0 | 0 | 0 | 20 | 0 | 0 | 0.09883 | 0 | 0 | 0.2048 | activation at 1 µM (Drosophila OR47a; [8]): 5%; activation at 10 µM (Drosophila OR47a; [8]): 0%; activation at 100 µM (Drosophila OR47a; [8]): 10%; activation at 100 µM (Drosophila OR98a; [6]): 20%
3 | CCCCCCCCCC=O [decanal] | 0 | 0 | 0 | 0.00 | 0.00 | 0.00 | 3 | 0 | 0 | – | – | 0 | 0 | 0 | 0 | 0 | 0 | 0 | 0 | 0 | –
4 | CCCCCC(=O)OCC [ethyl hexanoate] | 6.62 | 26 | 67 | 0.0662 | 0.26 | 0.67 | 5 | 12 | 3.29 | – | – | 0 | 12 | 0 | 0.06617 | 0.2596 | 0.6687 | 0 | 0.1164 | 0 | activation at 1 µM (Drosophila OR47a; [8]): 7%; activation at 10 µM (Drosophila OR47a; [8]): 26%; activation at 100 µM (Drosophila OR47a; [8]): 67%
5 | CC/C=C\CCOC(C)=O [Z-3-hexenyl acetate] | – | – | – | – | – | – | – | – | – | – | – | – | – | – | – | – | – | – | – | – | OR47a response (VUAA1-normalized) at 1 μM (Drosophila OR47a): 0.35; OR47a response (VUAA1-normalized) at 10 μM (Drosophila OR47a): 0.67; OR47a response (VUAA1-normalized) at 100 μM (Drosophila OR47a): 0.76; OR98a response (VUAA1-normalized) at 1 μM (Drosophila OR98a): 0.00; OR98a response (VUAA1-normalized) at 10 μM (Drosophila OR98a): 0.00; OR98a response (VUAA1-normalized) at 100 μM (Drosophila OR98a): 0.10
6 | CC/C=C\CCOC(C)=O [z3-hexenyl acetate] | – | – | – | 0.35 | 0.67 | 0.76 | 0 | 1.43 | 10 | 0 | 1 | – | – | – | – | – | – | – | – | – | activation at 1 µM (Drosophila OR47a; [8]): 35%; activation at 10 µM (Drosophila OR47a; [8]): 67%; activation at 100 µM (Drosophila OR47a; [8]): 76%; DF norm AVERAGE OR47a (Drosophila OR47a; [12]): 0.3542; DF norm AVERAGE OR47a (Drosophila OR47a; [13]): 0.669; DF norm AVERAGE OR47a (Drosophila OR47a; [14]): 0.7586; activation at 100 µM (Drosophila OR98a; [6]): 10%; DF norm AVERAGE OR98a (Drosophila OR98a; [12]): 0; DF norm AVERAGE OR98a (Drosophila OR98a; [13]): 0; DF norm AVERAGE OR98a (Drosophila OR98a; [14]): 0.1048
7 | C=C1CCC2(C(C)C)CC12 (stereo not drawn) [sabinene] | – | – | – | 0.00 | 0.00 | 0.00 | 0 | 10 | 2 | – | – | – | – | – | 0 | 0 | 0 | 0 | 0.1017 | 0 | OR47a response (VUAA1-normalized) at 1 μM (Drosophila OR47a): 0.00; OR47a response (VUAA1-normalized) at 10 μM (Drosophila OR47a): 0.00; OR47a response (VUAA1-normalized) at 100 μM (Drosophila OR47a): 0.00; OR98a response (VUAA1-normalized) at 1 μM (Drosophila OR98a): 0.00; OR98a response (VUAA1-normalized) at 10 μM (Drosophila OR98a): 0.10; OR98a response (VUAA1-normalized) at 100 μM (Drosophila OR98a): 0.00
